Results from ChEMBL document CHEMBL4402598, “Design and Synthesis of Bitopic 2-Phenylcyclopropylmethylamine (PCPMA) Derivatives as Selective Dopamine D3 Receptor Ligands” (J Med Chem, 2020).

Tests used:
D(1B) dopamine receptor = D(1B) dopamine receptor (Homo sapiens, UniProt P21918); experiment: Displacement of [3H]-SCH23390 from recombinant human D5 receptor transiently expressed in HEKT cell membranes measured after 90 mins by microbeta scintillation counting method
D(1A) dopamine receptor = D(1A) dopamine receptor (Homo sapiens, UniProt P21728); experiment: Displacement of [3H]-SCH23390 from recombinant human D1 receptor transiently expressed in HEKT cell membranes measured after 90 mins by microbeta scintillation counting method
D(4) dopamine receptor = target: T1, D(4) dopamine receptor (Homo sapiens, UniProt P21917); experiment: Displacement of [3H]-N-methylspiperone from recombinant human D4 receptor stably expressed in HEK cell membranes measured after 90 mins by microbeta scintillation counting method
T1 sequence (P21917 whole entry): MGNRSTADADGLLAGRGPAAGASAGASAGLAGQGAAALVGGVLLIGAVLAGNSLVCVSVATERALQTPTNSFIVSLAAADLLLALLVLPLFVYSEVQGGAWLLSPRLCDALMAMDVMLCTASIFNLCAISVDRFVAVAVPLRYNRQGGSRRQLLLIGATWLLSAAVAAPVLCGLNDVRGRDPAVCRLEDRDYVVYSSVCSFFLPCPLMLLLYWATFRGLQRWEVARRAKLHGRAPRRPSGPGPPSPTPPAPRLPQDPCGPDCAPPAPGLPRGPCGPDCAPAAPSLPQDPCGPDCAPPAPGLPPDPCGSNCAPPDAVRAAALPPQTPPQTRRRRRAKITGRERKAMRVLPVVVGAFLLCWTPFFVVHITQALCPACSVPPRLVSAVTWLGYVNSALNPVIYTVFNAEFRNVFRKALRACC

D(2) dopamine receptor = D(2) dopamine receptor (Homo sapiens, UniProt P14416); experiment: Displacement of [3H]-N-methylspiperone from recombinant human D2 receptor stably expressed in fibroblast cell membranes measured after 90 mins by microbeta scintillation counting method
[1] = target: T2, 5-hydroxytryptamine receptor 2C (Homo sapiens, UniProt P28335); experiment: Displacement of [3H]-Mesulergine from recombinant human 5HT2C receptor expressed in HEKT cell membranes measured after 90 mins by microbeta scintillation counting method
T2 sequence (P28335 whole entry): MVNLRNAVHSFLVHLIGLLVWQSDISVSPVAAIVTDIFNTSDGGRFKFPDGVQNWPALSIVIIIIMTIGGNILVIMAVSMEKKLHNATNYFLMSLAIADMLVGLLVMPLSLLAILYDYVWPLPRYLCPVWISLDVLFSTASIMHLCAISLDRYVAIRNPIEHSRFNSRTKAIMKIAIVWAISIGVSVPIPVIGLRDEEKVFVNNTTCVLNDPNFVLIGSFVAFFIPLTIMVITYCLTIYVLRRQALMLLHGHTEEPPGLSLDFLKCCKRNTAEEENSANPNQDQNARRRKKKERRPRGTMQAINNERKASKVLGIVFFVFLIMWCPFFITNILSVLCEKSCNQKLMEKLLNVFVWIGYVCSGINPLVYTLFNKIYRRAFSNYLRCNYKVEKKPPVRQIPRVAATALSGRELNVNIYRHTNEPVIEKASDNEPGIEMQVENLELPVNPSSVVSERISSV

D(3) dopamine receptor = D(3) dopamine receptor (Homo sapiens, UniProt P35462); experiment: Displacement of [3H]-N-methylspiperone from recombinant human D3 receptor (unknown origin) measured after 90 mins by microbeta scintillation counting method
Chain of D(3) dopamine receptor (P35462 whole entry): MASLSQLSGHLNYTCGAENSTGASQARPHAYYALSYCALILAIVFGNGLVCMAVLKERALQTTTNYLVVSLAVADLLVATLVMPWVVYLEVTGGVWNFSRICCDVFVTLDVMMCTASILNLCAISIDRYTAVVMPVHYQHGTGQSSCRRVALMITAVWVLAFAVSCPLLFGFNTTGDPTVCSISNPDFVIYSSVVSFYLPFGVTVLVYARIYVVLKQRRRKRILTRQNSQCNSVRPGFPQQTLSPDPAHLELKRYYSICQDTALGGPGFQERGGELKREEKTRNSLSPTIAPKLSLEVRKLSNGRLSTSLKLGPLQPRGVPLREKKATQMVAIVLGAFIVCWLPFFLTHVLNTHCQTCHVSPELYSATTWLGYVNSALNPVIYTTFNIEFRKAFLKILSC

Chain of D(1A) dopamine receptor (P21728 whole entry): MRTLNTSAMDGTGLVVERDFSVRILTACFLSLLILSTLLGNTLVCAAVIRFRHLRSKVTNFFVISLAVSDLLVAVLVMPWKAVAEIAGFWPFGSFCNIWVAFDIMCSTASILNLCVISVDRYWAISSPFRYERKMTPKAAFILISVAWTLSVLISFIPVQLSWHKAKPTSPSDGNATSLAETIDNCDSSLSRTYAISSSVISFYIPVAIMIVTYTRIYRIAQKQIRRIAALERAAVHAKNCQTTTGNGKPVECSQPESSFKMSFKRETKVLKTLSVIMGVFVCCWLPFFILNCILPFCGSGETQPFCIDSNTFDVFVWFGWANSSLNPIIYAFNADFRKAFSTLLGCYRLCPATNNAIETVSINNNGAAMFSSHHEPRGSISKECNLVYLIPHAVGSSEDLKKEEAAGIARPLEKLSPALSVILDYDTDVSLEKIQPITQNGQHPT
Chain of D(2) dopamine receptor (P14416 whole entry): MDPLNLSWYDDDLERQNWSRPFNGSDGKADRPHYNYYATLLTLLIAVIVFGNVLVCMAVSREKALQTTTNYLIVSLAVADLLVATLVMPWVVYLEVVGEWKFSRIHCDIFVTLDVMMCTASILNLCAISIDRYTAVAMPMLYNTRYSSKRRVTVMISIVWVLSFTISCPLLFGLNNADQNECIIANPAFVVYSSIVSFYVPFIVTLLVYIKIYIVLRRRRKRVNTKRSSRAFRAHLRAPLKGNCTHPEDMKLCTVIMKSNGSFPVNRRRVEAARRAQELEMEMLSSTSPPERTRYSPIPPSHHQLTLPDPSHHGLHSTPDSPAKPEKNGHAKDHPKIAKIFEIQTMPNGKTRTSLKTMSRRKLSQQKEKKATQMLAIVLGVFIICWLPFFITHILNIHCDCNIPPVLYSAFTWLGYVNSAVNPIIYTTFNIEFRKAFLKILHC
Chain of D(1B) dopamine receptor (P21918 whole entry): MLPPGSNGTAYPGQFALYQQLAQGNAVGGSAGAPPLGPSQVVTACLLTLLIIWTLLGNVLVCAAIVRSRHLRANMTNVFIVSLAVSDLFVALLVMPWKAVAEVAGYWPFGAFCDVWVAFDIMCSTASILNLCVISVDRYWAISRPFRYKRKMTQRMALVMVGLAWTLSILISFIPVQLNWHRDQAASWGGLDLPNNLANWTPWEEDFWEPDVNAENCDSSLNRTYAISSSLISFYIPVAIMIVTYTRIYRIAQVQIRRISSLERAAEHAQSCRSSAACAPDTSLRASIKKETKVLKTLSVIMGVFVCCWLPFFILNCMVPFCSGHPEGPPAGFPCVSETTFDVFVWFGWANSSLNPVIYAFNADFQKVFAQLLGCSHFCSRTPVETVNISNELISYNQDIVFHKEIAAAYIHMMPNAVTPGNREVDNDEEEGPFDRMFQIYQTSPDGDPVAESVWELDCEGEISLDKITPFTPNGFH

Row | SMILES | Ki (D(1B) dopamine receptor) | Ki (D(1A) dopamine receptor) | Ki (D(4) dopamine receptor) | Ki (D(2) dopamine receptor) | Ki [1] | Ki (D(3) dopamine receptor)
1 | CCCN(CCCCNC(=O)c1ccc(-c2ccccn2)cc1)CC1CC1c1cccc(Cl)c1 (stereo not given) | 5580 nM | 832 nM | 2330 nM | > 5000 nM | 898 nM | 26.5 nM
2 | CCCN(CCCCNC(=O)c1cc2ccccc2[nH]1)CC1CC1c1ccc(Cl)cc1 (stereo not given) | 9290 nM | 649 nM | 510 nM | 3160 nM | 137 nM | 25.7 nM
3 | CCCN(CCCCNC(=O)c1cc2ccccc2[nH]1)CC1CC1c1cccc(Cl)c1 (stereo not given) | > 5000 nM | 992 nM | 878 nM | 3490 nM | 132 nM | 11.1 nM
4 | CCCN(CCCCNC(=O)c1ccc2ccccc2c1)CC1CC1c1ccc(F)cc1 (stereo not given) | > 5000 nM | 992 nM | 2170 nM | 5620 nM | 238 nM | 55.8 nM
5 | CCCN(CCCCNC(=O)c1ccc(-c2ccccn2)cc1)CC1CC1c1cc(Cl)ccc1OC (stereo not given) | > 5000 nM | > 5000 nM | 1830 nM | 2100 nM | 136 nM | 39.4 nM
6 | CCCN(CCCCNC(=O)c1cc2ccccc2[nH]1)CC1CC1c1ccc(F)cc1 (stereo not given) | 10500 nM | 1460 nM | 1610 nM | 5930 nM | 219 nM | 45.7 nM
7 | CCCN(CCCCNC(=O)c1ccc2ccccc2c1)CC1CC1c1cccc(F)c1 (stereo not given) | > 5000 nM | 1310 nM | 1300 nM | 4820 nM | 165 nM | 26.7 nM
8 | CCCN(CCCCNC(=O)c1cc2ccccc2[nH]1)CC1CC1c1ccc(C(F)(F)F)cc1 (stereo not given) | 8190 nM | 1280 nM | 2070 nM | > 5000 nM | 1310 nM | 33.1 nM
9 | CCCN(CCCCNC(=O)c1ccc2ccccc2c1)CC1CC1c1cccc(Cl)c1Cl (racemic) | 4020 nM | 891 nM | 1340 nM | 2100 nM | 123 nM | –
10 | CCN(CCCCNC(=O)c1cc2ccccc2[nH]1)CC1CC1c1cc(F)ccc1OC (stereo not given) | > 5000 nM | 1080 nM | 220 nM | 380 nM | 49 nM | 23.4 nM
11 | CCCN(CCCCNC(=O)c1ccc2ccccc2c1)CC1CC1c1ccc(C(F)(F)F)cc1 (stereo not given) | 5800 nM | 1710 nM | 215 nM | > 5000 nM | 1260 nM | 43 nM
12 | CCCN(CCCCNC(=O)c1ccc(-c2ccccn2)cc1)CC1CC1c1cc(F)ccc1OC (racemic) | > 5000 nM | 1760 nM | 1140 nM | 3140 nM | 53 nM | –
13 | CN(CCCSc1nnc(-c2ccccc2)n1C)CC1CC1c1cc(F)ccc1OCCF (stereo not given) | 2150 nM | 1470 nM | 977 nM | 2440 nM | – | 562 nM
14 | CCCN(CCCCNC(=O)c1ccc(-c2ccccn2)cc1)CC1CC1c1ccc(Cl)cc1 (stereo not given) | 8840 nM | 1310 nM | 1410 nM | > 5000 nM | 284 nM | 17.6 nM
15 | CCCN(CCCCNC(=O)c1ccc2ccccc2c1)CC1CC1c1cc(Cl)ccc1OC (stereo not given) | 1100 nM | 930 nM | 945 nM | 1120 nM | 85 nM | 26.9 nM
16 | CCCN(CCCCNC(=O)c1ccc(-c2ccccn2)cc1)CC1CC1c1cccc(F)c1 (stereo not given) | > 5000 nM | 2910 nM | 2220 nM | > 5000 nM | 1340 nM | 45.4 nM
17 | CCN(CCCSc1nnc(-c2ccccc2)n1C)CC1CC1c1cc(F)ccc1OCCF (stereo not given) | 2000 nM | 584 nM | 179 nM | 845 nM | – | 113 nM
18 | COc1ccc(F)cc1C1CC1CN(CCCSc1nnc(-c2ccccc2)n1C)C(C)C (stereo not given) | > 5000 nM | > 5000 nM | 326 nM | 513 nM | 495 nM | 105 nM
19 | CCCN(CCCCNC(=O)c1cc2ccccc2[nH]1)CC1CC1c1cc(F)ccc1OC (stereo not given) | 789 nM | 871 nM | 376 nM | 507 nM | 68 nM | 11.2 nM
20 | COc1ccc(F)cc1C1CC1CNCCCSc1nnc(-c2ccccc2)n1C (stereo not given) | 926 nM | 631 nM | 133 nM | 253 nM | – | 89.8 nM

Row | SMILES | Ki (D(1B) dopamine receptor) | Ki (D(1A) dopamine receptor) | Ki (D(4) dopamine receptor) | Ki (D(2) dopamine receptor) | Ki [1] | Ki (D(3) dopamine receptor)
21 | CCCN(CCCCNC(=O)c1cc2ccccc2[nH]1)CC1CC1c1cccc(Cl)c1Cl (racemic) | 3500 nM | 891 nM | 1130 nM | 1500 nM | 105 nM | –
22 | CCCN(CCCCNC(=O)c1cc2ccccc2[nH]1)CC1CC1c1cc(Cl)ccc1OC (stereo not given) | 4230 nM | 818 nM | 575 nM | 1420 nM | 85.1 nM | 11.5 nM
23 | CCCN(CCCSc1nnc(-c2ccccc2)n1C)CC1CC1c1cc(Cl)ccc1OC (stereo not given) | > 5000 nM | 1920 nM | 130 nM | 233 nM | 535 nM | 36.7 nM
24 | CCOc1ccc(F)cc1C1CC1CNCCCSc1nnc(-c2ccccc2)n1C (stereo not given) | 589 nM | 295 nM | 501 nM | 661 nM | – | 219 nM
25 | CCOc1ccc(F)cc1C1CC1CN(C)CCCSc1nnc(-c2ccccc2)n1C (stereo not given) | > 5000 nM | 1120 nM | 989 nM | > 5000 nM | – | 550 nM
26 | CCCN(CCCCNC(=O)c1ccc2ccccc2c1)CC1CC1c1cc(F)ccc1OC (stereo not given) | 2200 nM | 967 nM | 844 nM | 1080 nM | 63.1 nM | 14.5 nM
27 | Cn1c(SCCCNCC2CC2c2cc(F)ccc2OCCF)nnc1-c1ccccc1 (stereo not given) | 1080 nM | 369 nM | 962 nM | 1500 nM | – | 525 nM
28 | CCCN(CCCSc1nnc(-c2ccccc2)n1C)CC1CC1c1cc(F)ccc1OC (stereo not given) | > 5000 nM | 1670 nM | 85.8 nM | 1160 nM | 412 nM | 87.1 nM
29 | CCCN(CCCCNC(=O)c1cc2ccccc2[nH]1)CC1CC1c1cccc(F)c1 (stereo not given) | > 5000 nM | 1100 nM | 671 nM | 3490 nM | 106 nM | 18.8 nM
30 | CCN(CCCSc1nnc(-c2ccccc2)n1C)CC1CC1c1cc(F)ccc1OC (stereo not given) | 1850 nM | 1720 nM | 30 nM | 275 nM | – | 44 nM
31 | CCCN(CCCCNC(=O)c1ccc(-c2ccccn2)cc1)CC1CC1c1ccc(C(F)(F)F)cc1 (stereo not given) | 7700 nM | 1420 nM | 2170 nM | > 5000 nM | 2360 nM | 23.4 nM
32 | CCN(CCCSc1nnc(-c2ccccc2)n1C)CC1CC1c1cc(Cl)ccc1OC (stereo not given) | > 5000 nM | 1510 nM | 241 nM | 238 nM | 203 nM | 31.6 nM
33 | COc1ccc(F)cc1C1CC1CN(C)CCCSc1nnc(-c2ccccc2)n1C (stereo not given) | 1000 nM | 794 nM | 85.1 nM | 324 nM | – | 84.5 nM
34 | CCCN(CCCCNC(=O)c1ccc(-c2ccccn2)cc1)CC1CC1c1ccc(F)cc1 (stereo not given) | > 5000 nM | 3630 nM | 2880 nM | > 5000 nM | 2170 nM | 106 nM
35 | CCOc1ccc(F)cc1C1CC1CN(CC)CCCSc1nnc(-c2ccccc2)n1C (stereo not given) | 1580 nM | 1150 nM | 101 nM | 380 nM | – | 55 nM
36 | CCN(CCCCNC(=O)c1ccc2ccccc2c1)CC1CC1c1cc(Cl)ccc1OC (stereo not given) | 571 nM | 1980 nM | 553 nM | 408 nM | 49 nM | 23.4 nM
37 | CCCN(CCCCNC(=O)c1ccc2ccccc2c1)CC1CC1c1ccc(Cl)cc1 (stereo not given) | 6110 nM | 509 nM | 1590 nM | 4610 nM | 179 nM | 32.6 nM
38 | COc1ccc(F)cc1C1CC1CN(CCCSc1nnc(-c2ccccc2)n1C)CC1CC1 (stereo not given) | 1200 nM | 1080 nM | 292 nM | > 5000 nM | 126 nM | 64.6 nM
39 | CCCN(CCCCNC(=O)c1ccc(-c2ccccn2)cc1)CC1CC1c1cccc(Cl)c1Cl (racemic) | > 5000 nM | 1650 nM | 2010 nM | – | 97.7 nM | –
